Assay results reported in US9051275B2, “4-[-2-[[5-methyl-1-(2-naphtalenyl)-1H-pyrazol-3-yl]oxy]ethyl]morpholine hydrochloride polymorphs and solvates” (Laboratories Del Dr. Esteve, S.A., priority 2010, dated 2015).

Key:
[1] = treatment and prevention of chronic and acute pain, particularly neuropathic pain; cited from earlier work
sigma-1 (σ-1) receptor = sigma-1 (σ-1) receptor (Homo sapiens, UniProt Q99720); settings: cited from earlier work
[2] = 1H NMR check of the stability of the salt in phase I samples; type: physicochemical; settings: several samples of phase I from different crystallizations
Method: In addition, several samples of phase I were analyzed by ^1H NMR in order to check the stability of the salt.

[3] = Grinding of P027 phase I with catalytic solvent in a ball mill, PXRD analysis; type: physicochemical
Method: Approximately 40 mg of P027 phase I were transferred to a ball mill container together with catalytic quantities of the relevant solvent (three drops). The P027 phase I and the solvent were grinded at a maximum frequency of 30 s^−1 for 30 minutes (see Table 23).
The solid samples obtained were analyzed by PXRD. […] FIG. 18 illustrates the PXRD pattern of a phase I form obtained from grinding P027 together with dichloromethane.

[4] = Pressure: tablets of P027 phase I in a hydraulic press, PXRD analysis; type: physicochemical
Method: Tablets of P027 phase I were prepared in a hydraulic press at three different pressures (5, 7.5 and 10 tons) for three different times (5, 30 and 90 minutes) [see Table 24].
The solid samples obtained were analyzed by PXRD. […] FIG. 19 illustrates the PXRD pattern of a phase I form obtained by applying a pressure of […] to P027 for 90 minutes.

[5] = Descriptive solubility of the P027 compound; type: physicochemical
[6] = Dissolution and absorption profile in vivo compared with the related base; settings: compared with its related base
[7] = Solubility of P027 in different solvents at room temperature (visual, successive solvent additions); type: physicochemical; settings: thermodynamic from solid
Method: In order to plan the crystallization screening, […] table 6 using the following methodology (table 7): […] solvent and successive additions (initially 0.2 mL and finally 0.5 mL) of solvent until the solid was completely dissolved or up to a maximum of 8 mL were performed. After each solvent addition the suspension was vigorously stirred for 10-15 minutes and visually inspected to determine if the solid was completely dissolved.

[8] = drying for 4 hours at 60° C., 80° C. and 100° C.
sigma 2 (σ-2) site = sigma 2 (σ-2) site (Homo sapiens, UniProt Q5BJF2); settings: cited from earlier work
sigma 2 (σ-2) site, sequence (Q5BJF2 whole entry): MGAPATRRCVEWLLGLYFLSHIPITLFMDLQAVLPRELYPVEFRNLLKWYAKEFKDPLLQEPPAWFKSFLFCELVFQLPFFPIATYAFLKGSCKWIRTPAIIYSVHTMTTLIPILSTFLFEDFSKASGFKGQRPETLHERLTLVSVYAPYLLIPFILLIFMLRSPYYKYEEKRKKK

sigma 1 (σ-1) site = sigma 1 (σ-1) site (Homo sapiens, UniProt Q99720); settings: cited from earlier work
sigma 1 (σ-1) site, sequence (Q99720 whole entry): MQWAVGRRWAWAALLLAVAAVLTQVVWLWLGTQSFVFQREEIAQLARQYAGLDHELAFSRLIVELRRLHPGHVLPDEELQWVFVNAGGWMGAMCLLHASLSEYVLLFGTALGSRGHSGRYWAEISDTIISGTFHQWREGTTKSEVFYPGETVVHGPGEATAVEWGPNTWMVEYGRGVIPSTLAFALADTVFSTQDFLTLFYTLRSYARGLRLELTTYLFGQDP

sigma-1 (σ-1) receptor, sequence (Q99720 whole entry): as above

Cc1cc(OCCN2CCOCC2)nn1-c1ccc2ccccc2c1 [4-[2-[[5-methyl-1-(2-naphthalenyl)-1H-pyrazol-3-yl]oxy]ethyl]morpholine]
analgesic activity [1]: strong analgesic activity | sigma-1 (σ-1) receptor antagonism, selectivity (sigma-1 (σ-1) receptor): highly selective sigma-1 (σ-1) receptor antagonist

Cc1cc(OCCN2CCOCC2)nn1-c1ccc2ccccc2c1.Cl [P027 phase I, 4-[2-[[5-methyl-1-(2-naphthalenyl)-1H-pyrazol-3-yl]oxy]ethyl]morpholine hydrochloride phase I crystalline form]
stability of the salt (1H NMR) [2]: no signs of the lost of HCl or decomposition | phase stability after grinding (PXRD) ([3]; ball mill, three drops of solvent (Table 23), 30 s^-1 for 30 minutes): stable after grinding | phase stability after grinding (PXRD) ([3]; grinding together with dichloromethane (FIG. 18)): consistent with the standard phase I PXRD pattern demonstrating the phase stability | phase stability under pressure (PXRD) ([4]; 5, 7.5 and 10 tons for 5, 30 and 90 minutes): stable under pressure | phase stability under pressure (PXRD) ([4]; pressure of 30 tons for 90 minutes (FIG. 19)): consistent with the standard phase I PXRD pattern demonstrating the phase stability

Cc1cc(OCCN2CCOCC2)nn1-c1ccc2ccccc2c1.Cl [P027, 4-[2-[[5-methyl-1-(2-naphthalenyl)-1H-pyrazol-3-yl]oxy]ethyl]morpholine hydrochloride]
solubility in 1N hydrochloric acid ([5]; 1N hydrochloric acid): freely soluble | solubility in 1N sodium hydroxide ([5]; 1N sodium hydroxide): practically insoluble | solubility in acetone ([5]; acetone): slightly soluble | solubility in dimethyl sulphoxide ([5]; dimethyl sulphoxide): freely soluble | solubility in ethanol ([5]; ethanol): sparingly soluble | solubility in ethyl acetate ([5]; ethyl acetate): practically insoluble | solubility in methanol ([5]; methanol): freely soluble | solubility in water ([5]; water): very soluble | dissolution and absorption profile in vivo [6]: better dissolution and absorption profile in vivo than its related base | solubility ([7]; organic solvent or mixture, 1,1,1-Trichloroethane, room temperature): < 1200 µg/mL | solubility ([7]; organic solvent or mixture, 1,2-Dichloroethane, room temperature): 15000 to 25000 µg/mL | solubility ([7]; organic solvent or mixture, 2-Butanol, solid was dissolved at 60° C., left at room temperature, no solid observed): 3000 to 4000 µg/mL | solubility ([7]; organic solvent or mixture, 3-Pentanone, solid was dissolved at 80° C., left at room temperature, no solid observed): 1000 to 2000 µg/mL | solubility ([7]; organic solvent or mixture, Acetone, room temperature): 4000 to 5000 µg/mL | solubility ([7]; organic solvent or mixture, Acetonitrile, solid was dissolved at 60° C., left at room temperature, no solid observed): 10000 to 20000 µg/mL | solubility ([7]; organic solvent or mixture, Butyl amine, room temperature): > 50000 µg/mL | solubility ([7]; organic solvent or mixture, Chlorobenzene, room temperature): < 1200 µg/mL | solubility ([7]; organic solvent or mixture, Chloroform, room temperature): > 50000 µg/mL | solubility ([7]; organic solvent or mixture, Cyclohexane, room temperature): < 1200 µg/mL | solubility ([7]; organic solvent or mixture, Dichloromethane, room temperature): > 50000 µg/mL | solubility ([7]; organic solvent or mixture, Diethoxymethane, room temperature): < 1200 µg/mL | solubility ([7]; organic solvent or mixture, Diisopropyl ether, room temperature): < 1200 µg/mL | solubility ([7]; organic solvent or mixture, Dimethoxymethane, room temperature): < 1200 µg/mL | solubility ([7]; organic solvent or mixture, Dimethylcarbonate, solid was dissolved at 80° C., left at room temperature, no solid observed): 1000 to 2000 µg/mL | solubility ([7]; organic solvent or mixture, Dimethylformamide, room temperature): > 50000 µg/mL | solubility ([7]; organic solvent or mixture, Dimethylsulfoxide, room temperature): > 50000 µg/mL | solubility ([7]; organic solvent or mixture, Dioxane, solid was dissolved at 80° C., left at room temperature, no solid observed): 1000 to 2000 µg/mL | solubility ([7]; organic solvent or mixture, Ethanol, room temperature): 15000 to 25000 µg/mL | solubility ([7]; organic solvent or mixture, Ethyl acetate, room temperature): < 1200 µg/mL | solubility ([7]; organic solvent or mixture, Isobutyl acetate, room temperature): < 1200 µg/mL | solubility ([7]; organic solvent or mixture, Isopropanol, solid was dissolved at 60° C., left at room temperature, no solid observed): 4000 to 5000 µg/mL | solubility ([7]; organic solvent or mixture, Isopropyl acetate, room temperature): < 1200 µg/mL | solubility ([7]; organic solvent or mixture, Methanol, room temperature): > 50000 µg/mL | solubility ([7]; organic solvent or mixture, Methyl acetate, room temperature): < 1200 µg/mL | solubility ([7]; organic solvent or mixture, Methyl ethyl ketone, solid was dissolved at 60° C., left at room temperature, no solid observed): 2000 to 4000 µg/mL | solubility ([7]; organic solvent or mixture, Methyl isobutyl ketone, room temperature): < 1200 µg/mL | solubility ([7]; organic solvent or mixture, Methyl tert-butyl ether, room temperature): < 1200 µg/mL | solubility ([7]; organic solvent or mixture, N,N-Dimethylacetamide, room temperature): 25000 to 50000 µg/mL | solubility ([7]; organic solvent or mixture, Nitromethane, room temperature): 25000 to 50000 µg/mL | solubility ([7]; organic solvent or mixture, Propyl acetate, room temperature): < 1200 µg/mL | solubility ([7]; organic solvent or mixture, Pyridine, room temperature): 25000 to 50000 µg/mL | solubility ([7]; organic solvent or mixture, Tetrahydrofuran, room temperature): < 1200 µg/mL | solubility ([7]; organic solvent or mixture, Toluene, room temperature): < 1200 µg/mL | solubility ([7]; organic solvent or mixture, Triethylamine, room temperature): < 1200 µg/mL | solubility ([7]; organic solvent or mixture, Xylene, room temperature): < 1200 µg/mL | solubility ([7]; organic solvent or mixture, n-Butanol, solid was dissolved at 60° C., left at room temperature, no solid observed): 5000 to 10000 µg/mL | solubility ([7]; organic solvent or mixture, n-Heptane, room temperature): < 1200 µg/mL | solubility ([7]; organic solvent or mixture, n-Hexane, room temperature): < 1200 µg/mL | solubility ([7]; Water, room temperature): > 50000 µg/mL

C1COCCO1.Cc1cc(OCCN2CCOCC2)nn1-c1ccc2ccccc2c1.Cl [dioxane solvate, 4-[2-[[5-methyl-1-(2-naphthalenyl)-1H-pyrazol-3-yl]oxy]ethyl]morpholine hydrochloride solvate with dioxane]
solid form after drying (PXRD) [8]: transformation to Phase I was observed

SKF 10047
affinity for the sigma 2 (σ-2) site (sigma 2 (σ-2) site): micromolar | affinity for the sigma 1 (σ-1) site (sigma 1 (σ-1) site): nanomolar
